# Measurements published in patent US20250019388A1, “STAT3 DEGRADERS AND USES THEREOF” (priority 2021, published 2025).
# Key:
# SU-DHL-1 cell line = experiment: Washout experiments in the SU-DHL-1 cell line; type: cell-based, human
# STAT3 [1] = experiment: STAT3 degradation potency in hepatocytes; type: cell-based; details: across human, rat, and dog
# [2] = Phase 1 study, safety and tolerability; type: in vivo, human; details: patients, DL1
# Procedure: Rationale: Targeted protein degraders represent a new therapeutic class of compounds that utilize the ubiquitin proteasome system to target the specific degradation of proteins. Compound A is a protein degrader that targets signal transducers and activators of transcription (STAT)3, a transcription factor that plays an important role in hematological malignancies such as lymphomas and in solid tumors. Compound A is administered via intravenous infusion (IV) at the dose levels defined in the protocol on Days 1, 8, 15, and 22 of each 28-day cycle.
# Patients who provide informed consent and meet the eligibility criteria for the study will be enrolled and treated with Compound A IV on Days 1, 8, 15, and 22 of a 28-day cycle. Patients will remain on study treatment until disease progression, unacceptable toxicity, withdrawal of consent, any study-specific discontinuation criteria are met, or the Investigator determines that it is in the best interest of the patient to discontinue study treatment.
# Phase 1a: This part aims to characterize the safety and tolerability of IV weekly doses of Compound A in sequential cohorts. […]
# SUP-M2 xenografts = experiment: Antitumor activity in SUP-M2 cell-line xenograft model; type: in vivo, NOD SCID mice; details: for tumor regression: 2 day on/5 days off
# Procedure: (§1) The antitumor efficacy of Compound A ammonium hydrogen salt was evaluated in immunocompromised mice implanted with human ALCL cell lines SU-DHL-1 and SUP-M2. Protocols for testing STAT3 degraders in human cell line xenograft models can be found, for example, in WO 2020/206424, incorporated herein by reference.
# (§2) The antitumor activity of Compound A ammonium hydrogen salt was evaluated in a human SUP-M2 cell-line xenograft model established in NOD SCID female mice. Tumor bearing mice (n=5/group) were administered either 0 (vehicle; PBS), 10, 20, or 30 mg/kg Compound A QW (Days 0, 7, and 14), 10 or 20 mg/kg Compound A on a 2 days on/5 days off schedule (Days 0, 1, 7, 8, 14, and 15), or 0 (vehicle; PBS), 20, or 40 mg/kg Compound A Q2W (Days 0 and 14). Animals administered Compound A QW or 2 on/5 off were monitored until Day 25 post first dose, and those administered Compound A Q2W were monitored until Day 52 post first dose.
# ALCL cell lines = experiment: Cellular phenotypic assays (GI50) in ALCL cell lines; type: cell-based; details: Homo sapiens; several ALCL cell lines
# STAT3 [3] = target: T1, STAT3 (Homo sapiens, UniProt P40763); experiment: STAT3 degradation in tumor, SU-DHL-1 tumor xenograft murine model; type: in vivo, mice; set-up: from tissue; host or cells: SU-DHL-1 xenograft tumour in immunocompromised mice; details: 10 mg/kg QW; observed for 48 hrs
# T1 sequence (P40763 whole entry): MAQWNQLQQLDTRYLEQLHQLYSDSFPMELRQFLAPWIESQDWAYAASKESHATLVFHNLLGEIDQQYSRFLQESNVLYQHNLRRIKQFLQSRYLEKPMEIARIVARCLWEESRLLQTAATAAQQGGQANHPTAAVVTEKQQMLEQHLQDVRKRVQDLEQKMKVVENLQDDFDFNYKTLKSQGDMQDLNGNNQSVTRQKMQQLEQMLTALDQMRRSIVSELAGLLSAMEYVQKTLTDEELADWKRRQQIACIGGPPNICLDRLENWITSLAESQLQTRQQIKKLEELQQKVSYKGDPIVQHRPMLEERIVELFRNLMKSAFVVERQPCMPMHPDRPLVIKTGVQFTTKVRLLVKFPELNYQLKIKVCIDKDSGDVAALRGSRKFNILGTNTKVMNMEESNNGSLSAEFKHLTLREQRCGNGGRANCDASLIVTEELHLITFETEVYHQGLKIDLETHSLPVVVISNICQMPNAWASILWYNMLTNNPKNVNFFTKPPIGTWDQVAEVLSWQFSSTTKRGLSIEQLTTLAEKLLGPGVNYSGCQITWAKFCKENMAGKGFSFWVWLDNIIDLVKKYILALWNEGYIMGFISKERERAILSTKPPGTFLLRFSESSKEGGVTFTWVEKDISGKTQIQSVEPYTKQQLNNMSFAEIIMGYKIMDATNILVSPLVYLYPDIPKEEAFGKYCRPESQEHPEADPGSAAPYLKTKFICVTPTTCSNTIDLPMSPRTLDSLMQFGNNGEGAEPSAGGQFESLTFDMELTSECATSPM
# [4] = Body weight in SU-DHL-1 xenograft study; type: in vivo, NOD SCID mice; details: IV route, SU-DHL-1 study
# Procedure: (§3) The antitumor activity of Compound A ammonium hydrogen salt was evaluated in a human SU-DHL-1 cell-line xenograft model established in NOD SCID female mice. Tumor bearing mice (n=5/group) were administered either 0 (vehicle; PBS), 5, 10, 15, or 45 mg/kg Compound A once weekly (QW; Days 0, 7, and 14) or 0 (vehicle; PBS), 10, or 30 mg/kg Compound A once every two weeks (Q2W; Days 0 and 14). Animals administered Compound A QW were monitored until Day 25 post first dose and those administered Compound A Q2W were monitored until Day 71 post first dose.
# STAT3 [5] = target: T1, STAT3; experiment: Phase 1 study, STAT3 degradation in blood (PBMCs); type: in vivo; set-up: Observed STAT3 degradation of 50-80% in PBMCs at Dose Level 1; from tissue; host or cells: blood / PBMCs of patients dosed IV with Compound A; details: patients
# Excerpt: Rationale: Targeted protein degraders represent a new therapeutic class of compounds that utilize the ubiquitin proteasome system to target the specific degradation of proteins.
# STAT3 [6] = target: T2, STAT3 (Rattus norvegicus, UniProt P52631); experiment: PK/PD study in rats, STAT3 degradation in tissues; type: in vivo; details: IV administration
# T2 construct: from tissue
# T2 sequence (P52631 whole entry): as the sequence (P40763 whole entry) above, with E311D, E760D counted along it
# SU-DHL-1 xenografts = experiment: Antitumor activity in SU-DHL-1 cell-line xenograft model; type: in vivo, NOD SCID mice
# Procedure: as §1, §3
# STAT3 [7] = target: T1, STAT3; experiment: STAT3 degradation in human ALCL cell lines SU-DHL-1 and SUP-M2; type: cell-based; details: SU-DHL-1 and SUP-M2 cell lines
# [8] = Body weight in SUP-M2 xenograft study; type: in vivo, NOD SCID mice; details: IV route
# Procedure: as §2
# caspase 3/7 = experiment: Caspase 3/7 activity in ALCL lines; type: cell-based, human; details: at similar concentrations
# [9] = tested on: other STAT family members or other cellular proteins; experiment: Proteome wide assessment in PBMC; type: cell-based
# Aqueous solubility = type: physicochemical
# Procedure: Compound A injection was manufactured as a frozen concentrated solution containing 10 mg/mL of free acid intended to be diluted with IV infusion vehicle. It has aqueous solubility greater than 10 mg/mL at pH 4.5 to 9.0 but less than 10 mg/mL at pH less than or equal to 3.
smiles,measurement,setting,value
"CC(=O)N1CC[C@H]2CC[C@@H](C(=O)N[C@@H](CCC(N)=O)COc3cccc(CCCC(=O)N[C@H](C(=O)N4C[C@H](O)C[C@H]4C(=O)N[C@@H](C)c4ccc(-c5scnc5C)cc4)C(C)(C)C)c3Cl)N2C(=O)[C@@H](NC(=O)c2cc3cc(C(=O)P(=O)(O)O)ccc3[nH]2)C1 [Compound A, (2-(((5S,8S,10aR)-3-acetyl-8-(((S)-5-amino-1-(2-chloro-3-(4-(((S)-1-((2S,4R)-4-hydroxy-2-(((S)-1-(4-(4-methylthiazol-5-yl)phenyl)ethyl)carbamoyl)pyrrolidin-1-yl)-3,3-dimethyl-1-oxobutan-2-yl)amino)-4-oxobutyl)phenoxy)-5-oxopentan-2-yl)carbamoyl)-6-oxodecahydropyrrolo[1,2-a][1,5]diazocin-5-yl)carbamoyl)-1H-indole-5-carbonyl)phosphonic acid]",duration of sustained STAT3 degradation after which irreversible growth inhibition occurred,SU-DHL-1 cell line,approximately 48 hr
same,degradation potency of STAT3 in hepatocytes,STAT3 [1],comparable degradation potency
same,"safety and tolerability (DLTs, SAEs)",[2],safe and well-tolerated with no DLTs or SAEs
same,TGI,SUP-M2 xenografts; 10 mg/kg QW IV,83.8%
same,tumor regression,SUP-M2 xenografts; 10 mg/kg,complete tumor regression in all animals
same,animals with complete tumor regression,SUP-M2 xenografts; 20 mg/kg Q2W,4 of 5
same,animals with complete tumor regression,SUP-M2 xenografts; 20 mg/kg QW IV,4 of 5
same,tumor regression,SUP-M2 xenografts; 20 mg/kg,complete tumor regression in all animals
same,animals with complete tumor regression,SUP-M2 xenografts; 30 mg/kg QW IV,5 of 5
same,animals with complete tumor regression,SUP-M2 xenografts; 40 mg/kg Q2W,5 of 5
same,GI50,ALCL cell lines,8.1 to 57.4 nM
same,STAT3 degradation in tumor,STAT3 [3],greater than 90%
same,body weight change,[4],slight to moderate body weight increases
same,time of maximal STAT3 degradation post infusion,"STAT3 [5]; DL1, Cycle 1 weeks 1 & 2",24 to 96 h
same,STAT3 degradation in PBMCs,STAT3 [5]; Dose Level 1,50-80%
same,duration of target degradation,STAT3 [5]; first dose level,At least 72 h
same,maximum STAT3 knockdown in blood,STAT3 [5]; first dose level,up to 86%
same,mean maximum STAT3 degradation in blood,"STAT3 [5]; first dose level (DL1, 0.05 mg/kg IV), following first 2 doses of Cycle 1",66%
same,degradation of STAT3 protein in tissues,STAT3 [6],significant degradation of STAT3 protein in multiple tissues
same,tumor growth inhibition (TGI),SU-DHL-1 xenografts; 5 mg/kg QW IV,79.9%
same,TGI,SU-DHL-1 xenografts; 10 mg/kg Q2W IV,89.8%
same,tumor regression,SU-DHL-1 xenografts; 10 mg/kg QW IV,complete regression
same,tumor regression,SU-DHL-1 xenografts; 15 mg/kg QW IV,complete regressions
same,TGI,SU-DHL-1 xenografts; 30 mg/kg Q2W IV,99.8%
same,tumor regression,"SU-DHL-1 xenografts; 30 mg/kg Q2W IV, all animals",complete tumor regressions
same,tumor regression,SU-DHL-1 xenografts; 45 mg/kg QW IV,complete regressions
same,STAT3 degradation (concentration),STAT3 [7],≤ 11.8 ± 2.3 nM
same,body weight change,[8],little to slight body weight increases
same,"caspase 3/7 activity, a marker of apoptosis",caspase 3/7,induced caspase 3/7 activity
same,selectivity of degradation,[9],does not degrade other STAT family members or other cellular proteins
same,solubility,"Aqueous solubility; aqueous buffer, pH 4.5 to 9.0",> 10000 µg/mL
same,solubility,"Aqueous solubility; pH 3, aqueous buffer, pH less than or equal to 3",< 10000 µg/mL
